Measured values from US12187728B2 (Raze Therapeutics, Inc., priority 2015, dated 2025).

Target: T1, Human MTHFD2 (Homo sapiens, UniProt P13995)
T1 construct: residues 36-350 in Uniport ID P13995; His6 (N); made in house; host or cells: E. coli
T1 sequence (P13995 36-350): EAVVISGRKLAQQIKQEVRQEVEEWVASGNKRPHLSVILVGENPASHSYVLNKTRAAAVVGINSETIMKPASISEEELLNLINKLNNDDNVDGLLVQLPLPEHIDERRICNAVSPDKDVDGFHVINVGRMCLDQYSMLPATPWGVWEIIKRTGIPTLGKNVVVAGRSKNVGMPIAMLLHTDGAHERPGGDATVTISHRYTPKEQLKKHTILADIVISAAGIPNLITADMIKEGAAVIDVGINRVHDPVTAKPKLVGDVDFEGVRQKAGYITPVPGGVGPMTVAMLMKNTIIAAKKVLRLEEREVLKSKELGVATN
Assay: MTHFD2 Activity Assay (dehydrogenase activity, diaphorase/resazurin coupled fluorescence)
Type: biochemical
Conditions: inhibitory activity (IC50 and/or binding constant); 0.2 nM MTHFD2, 11 concentrations
Summary of the method: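 His6-tagged MTHFD2 (res. 36-350), E. coli-expressed, at 0.2 nM preincubated with compound 15 min in Hepes pH 8.0/MgCl2/KH2PO4 buffer; 70 μM CH2-THF, 1 mM NAD+ added with resazurin/diaphorase, 30 min, EDTA stop. Resorufin fluorescence (ex 525/em 598); IC50 from 11-point 4-parameter fit.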

Row | IC50 | Structure (SMILES)
1 | 10 to 1000 nM | CCc1cccc2cc(Cn3c(=O)c4c(nc(C(C)N)n4C)n(C)c3=O)ccc12 (centres unmarked) [Example 463, 8-(1-aminoethyl)-1-((5-ethylnaphthalen-2-yl)methyl)-3,7-dimethyl-1H-purine-2,6(3H,7H)-dione]
2 | 10 to 1000 nM | CC(N)c1nc2c(c(=O)n(Cc3ccc4c(C5CC5)cccc4c3)c(=O)n2C)n1C (centres unmarked) [Example 452, 8-(1-aminoethyl)-1-((5-cyclopropylnaphthalen-2-yl)methyl)-3,7-dimethyl-1H-purine-2,6(3H,7H)-dione]
3 | 1000 to 5000 nM | Cn1c(NCCC#N)nc2c1c(=O)n(Cc1ccc(Cl)c(Cl)c1)c(=O)n2C [Example 131, 3-(1-(3,4-dichlorobenzyl)-3,7-dimethyl-2,6-dioxo-2,3,6,7-tetrahydro-1H-purin-8-ylamino)propanenitrile]
4 | 10 to 1000 nM | Cc1ccc2[nH]c(Cn3c(=O)c4c(nc(N[C@H]5CC[C@@H](O)C5)n4C)n(C)c3=O)cc2c1 (racemic) [Example 177, (±)-8-((cis)-3-hydroxycyclopentylamino)-3,7-dimethyl-1-((5-methyl-1H-indol-2-yl)methyl)-1H-purine-2,6(3H,7H)-dione]
5 | 5000 to 10000 nM | Cn1c(=O)n(Cc2ccc(Cl)c(Cl)c2)c(=O)c2c1ncn2CCO [Example 248, 1-(3,4-dichlorobenzyl)-7-(2-hydroxyethyl)-3-methyl-1H-purine-2,6(3H,7H)-dione]
6 | > 10000 nM | COc1ccc(Cn2c(=O)c3c(nc(NC[C@H](C)O)n3C)n(C)c2=O)cc1 [Example 34, 8-{[(2S)-2-hydroxypropyl]amino}-1-[(4-methoxyphenyl)methyl]-3,7-dimethyl-2,3,6,7-tetrahydro-1H-purine-2,6-dione]
7 | 5000 to 10000 nM | Cn1c(N)nc2c1c(=O)n(Cc1cc3cc(Cl)ccc3[nH]1)c(=O)n2C [Example 241, 8-amino-1-((5-chloro-1H-indol-2-yl)methyl)-3,7-dimethyl-1H-purine-2,6(3H,7H)-dione]
8 | 1000 to 5000 nM | Cn1c(NC2CNC2)nc2c1c(=O)n(Cc1ccc(Cl)c(Cl)c1)c(=O)n2C [Example 65, 8-[(azetidin-3-yl)amino]-1-[(3,4-dichlorophenyl)methyl]-3,7-dimethyl-2,3,6,7-tetrahydro-1H-purine-2,6-dione]
9 | 1000 to 5000 nM | Cn1c(N[C@@H]2CC[C@@H](O)C2)nc2c1c(=O)n(Cc1ccc(C(F)(F)F)cc1)c(=O)n2C (single isomer, unassigned) [Example 76, 8-((1R,3R)-3-hydroxycyclopentylamino)-3,7-dimethyl-1-(4-(trifluoromethyl)benzyl)-1H-purine-2,6(3H,7H)-dione or 8-((1S,3S)-3-hydroxycyclopentylamino)-3,7-dimethyl-1-(4-(trifluoromethyl)benzyl)-1H-purine-2,6(3H,7H)-dione]

The remaining lines, values behind:

Row | Structure (SMILES) | IC50
10 | Cn1c(N[C@H]2CC[C@@H](O)C2)nc2c1c(=O)n(Cc1ccc(C(F)(F)F)cc1)c(=O)n2C (single isomer, unassigned) [Example 133, 8-((1S,3R)-3-hydroxycyclopentylamino)-3,7-dimethyl-1-(4-(trifluoromethyl)benzyl)-1H-purine-2,6(3H,7H)-dione or 8-((1R,3S)-3-hydroxycyclopentylamino)-3,7-dimethyl-1-(4-(trifluoromethyl)benzyl)-1H-purine-2,6(3H,7H)-dione] | 1000 to 5000 nM
11 | CC(N)c1nc2c(c(=O)n(Cc3cc4c(Cl)cccc4[nH]3)c(=O)n2C)n1C (centres unmarked) [Example 389, 8-(1-aminoethyl)-1-[(4-chloro-1H-indol-2-yl)methyl]-3,7-dimethyl-purine-2,6-dione] | 10 to 1000 nM
12 | Cn1c(N[C@H]2C[C@H](CO)C2)nc2c1c(=O)n(Cc1cc3c(Cl)cccc3[nH]1)c(=O)n2C [Example 305, 1-((4-chloro-1H-indol-2-yl)methyl)-8-((1R,3R)-3-(hydroxymethyl)cyclobutylamino)-3,7-dimethyl-1H-purine-2,6(3H,7H)-dione] | 10 to 1000 nM
13 | Cc1ccc(Nc2nc3c(c(=O)n(Cc4cc5c(Cl)cccc5[nH]4)c(=O)n3C)n2C)cn1 [Example 383, 1-((4-chloro-1H-indol-2-yl)methyl)-3,7-dimethyl-8-(6-methylpyridin-3-ylamino)-1H-purine-2,6(3H,7H)-dione] | 10 to 1000 nM
14 | Cn1c(N[C@@H]2CCCC[C@H]2O)nc2c1c(=O)n(Cc1ccc(Cl)c(Cl)c1)c(=O)n2C [Example 108, 1-(3,4-dichlorobenzyl)-8-((1R,2R)-2-hydroxycyclohexylamino)-3,7-dimethyl-1H-purine-2,6(3H,7H)-dione] | 1000 to 5000 nM
15 | Cn1c(Nc2ccc3c(c2)NC(=O)CCC3)nc2c1c(=O)n(Cc1ccc(Cl)c(Cl)c1)c(=O)n2C [Example 109, 1-(3,4-dichlorobenzyl)-3,7-dimethyl-8-(2-oxo-2,3,4,5-tetrahydro-1H-benzo[b]azepin-8-ylamino)-1H-purine-2,6(3H,7H)-dione] | 10 to 1000 nM
16 | Cn1c(NC2CCC(CO)C2)nc2c1c(=O)n(Cc1ccc(Cl)c(Cl)c1)c(=O)n2C (centres unmarked) [Example 255, 1-(3,4-dichlorobenzyl)-8-(3-(hydroxymethyl)cyclopentylamino)-3,7-dimethyl-1H-purine-2,6(3H,7H)-dione] | 10 to 1000 nM
17 | Cc1cccc2cc(Cn3c(=O)c4c(nc(Nc5ccncc5)n4C)n(C)c3=O)ccc12 [Example 410, 3,7-dimethyl-1-((5-methylnaphthalen-2-yl)methyl)-8-(pyridin-4-ylamino)-1H-purine-2,6(3H,7H)-dione] | 10 to 1000 nM
18 | Cn1c(Nc2ccc3c(c2)C(CCO)CC3)nc2c1c(=O)n(Cc1ccc(Cl)c(Cl)c1)c(=O)n2C (centres unmarked) [Example 323, 1-(3,4-dichlorobenzyl)-8-((3-(2-hydroxyethyl)-2,3-dihydro-1H-inden-5-yl)amino)-3,7-dimethyl-1H-purine-2,6(3H,7H)-dione] | 1000 to 5000 nM
19 | Cn1c(C(N)c2ccccn2)nc2c1c(=O)n(Cc1cc3c(Cl)cccc3[nH]1)c(=O)n2C (centres unmarked) [Example 473, 8-(amino(pyridin-2-yl)methyl)-1-((4-chloro-1H-indol-2-yl)methyl)-3,7-dimethyl-1H-purine-2,6(3H,7H)-dione] | 10 to 1000 nM
20 | Cn1c(Nc2cccc([C@H]3C[C@H]3C(=O)O)n2)nc2c1c(=O)n(Cc1cc3c(Cl)cccc3[nH]1)c(=O)n2C (racemic) [Example 372, (±)-cis-2-(6-((1-((4-chloro-1H-indol-2-yl)methyl)-3,7-dimethyl-2,6-dioxo-2,3,6,7-tetrahydro-1H-purin-8-yl)amino)pyridin-2-yl)cyclopropane-1-carboxylic acid] | 10 to 1000 nM
21 | Cn1c(Nc2ccc(-c3nnn[nH]3)cc2)nc2c1c(=O)n(Cc1cc3c(Cl)cccc3[nH]1)c(=O)n2C [Example 397, 8-((4-(1H-tetrazol-5-yl)phenyl)amino)-1-((4-chloro-1H-indol-2-yl)methyl)-3,7-dimethyl-1H-purine-2,6(3H,7H)-dione] | 10 to 1000 nM
22 | CCn1c(=O)n(Cc2cc3c(Cl)cccc3[nH]2)c(=O)c2c1nc(Nc1ccncc1)n2C [Example 361, 1-((4-chloro-1H-indol-2-yl)methyl)-3-ethyl-7-methyl-8-(pyridin-4-ylamino)-1H-purine-2,6(3H,7H)-dione] | 10 to 1000 nM
23 | Cn1c(Nc2ncn[nH]2)nc2c1c(=O)n(Cc1cc3cc(Cl)ccc3[nH]1)c(=O)n2C [Example 207, 8-(1H-1,2,4-triazol-5-ylamino)-1-((5-chloro-1H-indol-2-yl)methyl)-3,7-dimethyl-1H-purine-2,6(3H,7H)-dione] | 1000 to 5000 nM
